# From publication PMC9862186 (International Journal of Molecular Sciences, 2023)
# Read-outs that look alike come from different tables or passages of the source.
# How the values were obtained:
# PC12 cells [1] = assay: Dopamine release from neuronal differentiated PC12 cells (ELISA); format: cell-based, rat; details: 60 mM K^+, 5 min, control stimulus; baseline 393 ± 12 pg/mL
# Experimental: PC12 cell line (RRID:CVCL_0481), derived from rat adrenal gland pheochromocytoma, was a kind gift from Dr Federica Brugnoli from the Department of Translational Medicine, University of Ferrara, Ferrara (Italy). The cells were grown in RPMI-1640 (HiGlutaXL) medium (Microtech, Naples, Italy), supplemented with 100 µg/mL streptomycin and 100 IU/mL penicillin, 10% horse serum (HS), and 5% fetal bovine serum (FBS). PC12 cells were gently removed from the 4 µg/cm^2 collagen IV-coated flask with a rubber scraper, transferred as cell suspension into a Falcon tube and resuspended through a sterile tip to avoid any clumping, then split into separate flasks twice weekly. To differentiate neuronal phenotypes, PC12 cells were seeded in 4 µg/cm^2 collagen IV-coated 12-well plates at a density of 5000 cells/well, and they were then left to adhere to the well for 24 h. […] All the proliferative and differentiated cultures were maintained at 37 °C in a humidified 5% CO2 atmosphere.
# PC12 cells differentiated to neuronal-like phenotype in collagen IV-treated 12-well plates, were first synchronized all to the same circadian phase and cell cycle by a serum shock (50% HS and 50% DMEM HiGlutaXL) for 2 h at 37 °C [49] to achieve a synchronous release of dopamine. Synchronization medium was then aspirated off, cells were washed with 3 × 1 mL and equilibrated for 15 min at 37 °C in 1 mL of Krebs Ringer HEPES (KRH) physiological buffer, following the recipe of Mount et al. (25 mM HEPES/Tris, pH 7.4, 1.2 mM KH2PO4, 125 mM NaCl, 4.8 mM KCl, 1.2 mM MgSO4, 2.2 mM CaCl2, 5.6 mM glucose, 1.0 mM ascorbic acid, 10 µM pargyline, 1.0 µM nomifensine). […] To remove cell debris, all samples of 1 mL incubation KRH at the end of treatments were centrifuged at 1000× g for 20 min at 4 °C and stored at −20 °C until dopamine levels were determined by ELISA assay.
# Dopamine levels in 1 mL incubation KRH buffer were detected by means of an ELISA assay, based on the […] ELISA principle for detection of dopamine, following manufacturer’s instructions (IBL International, Hamburg, Germany–catalog no: RE59161; purchased from Tecan Italia S.r.I, Milan, Italy). After the substrate reaction, the intensity of the developed color was proportional to the amount of dopamine, detected at 450 nm using a microplate reader spectrophotometer (Sunrise® Microplate Reader, Tecan Trading AG, Männedorf, Switzerland). Results of samples were determined directly using the standard curve. Results are presented as mean ± SE values of four independent experiments. Data were plotted and analyzed with GraphPad software (Prism, version 7.0, San Diego, CA, USA).
# [2] = rat, in vivo, cited from earlier work
# rats = details: cited from earlier work
# in vivo [3] = details: male, Wistar, rat, in vivo, iv
# Experimental: (§1) A saline solution (0.9% NaCl) was added to a mixture of cinnamaldehyde (density = 1.05 g/mL) and Cremophor® RH 40 (1:1 v/v) in order to obtain a 12.5 mg/mL cinnamaldehyde emulsion in the presence of ethanol (10% of final volume). A group (n = 4) of male Wistar rats (200–250 g) fasted for 24 h was anesthetized during the experimental period and received 0.4 mL via a femoral intravenous infusion (rate = 0.2 mL/min; 2 min) of 12.5 mg/mL cinnamaldehyde emulsion (20 mg/kg cinnamaldehyde dose).
# (§2) At the end of the infusions and at fixed time points, CSF samples (50 μL) were withdrawn and blood samples (100 μL) were collected. The CSF was withdrawn using the cisternal puncture method described by van den Berg et al., which requires a single needle stick and allows the collection of serials (40–50 μL) CSF samples that are virtually blood-free. A total volume of about a maximum of 150 μL of CSF/rat (i.e., three 50 μL samples/rat) was collected during the experimental session, choosing the time points (n = 3–5, taking into account a maximum of three collections per rat) in order to allow the restoring of the CSF physiological volume.
# The samples were centrifuged at 12,500× g for 5 min, then about 300 μL of supernatant were withdrawn and further centrifuged. […] As a control, a blood sample (100 μL) was collected by each rat before the administrations of the drugs. The control samples were immediately added to 300 μL of ice-cold CH3CN in the absence of internal standard, then treated as described above.
# For cinnamaldehyde analysis the blood samples were hemolyzed immediately after their collection with 500 μL of ice-cold water, and then 50 μL of 10% sulfosalicylic acid and 50 μL of internal standard (100 μM carbazole dissolved in a water-methanol mixture 50:50 v/v) was added. The samples were extracted twice with 1 mL of water-saturated ethyl acetate, and, after centrifugation at 12,500× g for 10 min, the organic layer was reduced to dryness under a mild nitrogen stream at room temperature. Then, 200 μL of a water-acetonitrile mixture (50:50 v/v) were added, and after centrifugation, 10 μL were analyzed via HPLC (see below) for cinnamaldehyde detection. As a control, a blood sample (100 μL) was collected by each rat before the administration of the drug. The control samples were treated as described above in the absence of internal standard.
# (§3) In particular, all the AUC values referred to the bloodstream were calculated by the trapezoidal method within the last time point detected, and the remaining area was obtained as the ratio between the compound concentration detected at the last time point and the elimination constant (kel), which was obtained from the slope of the semilogarithmic plots (−slope × 2.3). The clearance (Cl) and distribution volume (Vd) values were calculated according to the non-compartmental model as the ratios “dose/AUC” and “Cl/kel”, respectively, where kel is the elimination constant obtained by the slope of semilogarithmic plot.
# (§4) The chromatographic apparatus consisted of a modular system (model LC-10 AD VD pump and model SPD-10A VP variable wavelength UV−vis detector; Shimadzu, Kyoto, Japan) and an injection valve with 20 μL sample loop (model 7725; Rheodyne, IDEX, Torrance, CA, USA). Separations were performed at room temperature on a 5 μm Hypersil BDS C-18 column (150 mm × 4.6 mm i.d.; Alltech Italia Srl, Milan, Italy) equipped with a guard column packed with the same Hypersil material. The volume injection was 10 μL. Data acquisition and processing were performed on a personal computer using CLASS-VP Software, version 7.2.1 (Shimadzu Italia, Milan, Italy).
# The detector was set at 205 nm.
# in vivo [4] = details: for Kp at 10 min: R: ratio of concentration between CSF and bloodstream at Tmax
# Experimental: as §1, §2, §4
# For CSF simulation, standard aliquots of balanced solution (Dulbecco’s phosphate buffer saline—DPBS—without calcium and magnesium) in the presence of 0.45 mg/mL BSA were used.
# in vivo [5] = details: rat, po
# Experimental: as §2
# (§5) Each type of formulation was administered to a group of four rats.
# (§6) In particular, 4.2 mL of EU-CD formulation were administered to rats (500 mg/kg dose).
# (§7) In particular, 320 μL of EU-SL formulation were administered to rats (500 mg/kg dose).
# (§8) Free cinnamaldehyde (100 mg) was orally administered by gavage to rats kept fasting since 24 h. In particular, 95 μL of cinnamaldehyde (density = 1.05 g/mL) were dissolved in 905 μL of corn oil and administered to rats (400 mg/kg dose).
# (§9) The solid AC-GN formulation (14% w/w cinnamaldehyde) was mixed with palatable food in order to induce their oral intake by the rats kept fasting since 24 h. In particular, the rats assumed a dose of 100 mg of cinnamaldehyde (400 mg/kg) contained in 714 mg of AC-GN.
# (§10) After the administrations, blood (100 μL) and CSF samples (50 μL) were serially collected at fixed time points from each rat and treated as described above in order to quantify the compounds.
# in vivo [6] = details: Wistar, rat; for bioavailability: F: absolute bioavailability
# Experimental: as §5, §6, §7, §8, §9, §10, §3
# PC12 cells [7] = details: cited from earlier work
# [8] = male, Wistar, rat, in vivo, iv, 20 mg/kg
structure (smiles),measurement,setting,value
"[Cl-].[K+] [K^+, reference compound]",dopamine release,PC12 cells [1],4340 ± 265 pg/mL
"O=C/C=C/c1ccccc1 [Cinnamaldehyde, cinnamaldehyde]",C0,"[2]; iv, 20 mg/kg",about 0.5 μg/mL
same,C0,"[2]; iv, 25 mg/kg",about 20 mg/mL
same,F (oral bioavailability),[2]; po,less than 20%
same,oral LD50,rats; oral,about 3 g/kg
same,intravenous dose known to induce toxicity,"rats; rats, iv",25 mg/kg
same,intravenous dose that appears lethal,"rats; rats, iv",30 mg/kg
same,Vd,in vivo [3],1.32 ± 0.19 L/kg
same,clearance,in vivo [3],39.5 ± 1.7 mL/min/kg
same,half-life,in vivo [3],23.1 ± 1.6 min
same,AUC,"in vivo [4]; male, Wistar, rat, in vivo, iv",1610 ng·h/mL
same,AUC,in vivo [4]; [8],1610 ng·h/mL
same,Cmax,in vivo [4]; [8],2040 ± 360 ng/mL
same,Kp at 10 min,"in vivo [4]; male, Wistar, rat, in vivo, iv, rat, iv, 10 min from the end of infusion",0.156 ± 0.038
same,time within which CSF concentrations decreased to zero or near to zero,"in vivo [4]; rat CSF, iv 20 mg/kg",≤ 75 min
same,R: ratio of concentration between CSF and bloodstream at Tmax,"in vivo [4]; rat, iv, 10 min from the end of infusion",0.16 ± 0.04
same,AUC in CSF to last time of detection,in vivo [5],0 µg·min/mL
same,Tmax: time of Cmax in CSF,in vivo [5],0 h
same,Tmax: time of Cmax in the bloodstream,in vivo [6],40 min
same,F: absolute bioavailability,in vivo [6]; po,7.33 ± 0.37%
same,RB: relative bioavailability,in vivo [6]; po,100%
same,bioavailability,in vivo [6]; po,7%
Oc1ccc(/C=C/c2cc(O)cc(O)c2)cc1 [resveratrol],most effective concentration in increasing the viability of PC12 cells,PC12 cells [7],25 µM
"C=C(C)[C@H]1CC=C(C)CC1 [D-Limonene, D-limonene]",C0,"[2]; iv, 200 mg/kg",higher than 80 μg/mL
same,terminal t1/2,"[2]; iv, 200 mg/kg",280 min
same,Cmax,"[2]; po, 75 mg/kg",~300 ng/mL
same,Cmax,"[2]; po, 200 mg/kg",about 11 μg/mL
same,Cl: clearance,in vivo [3],284 ± 10 mL·min/kg
same,Vd,in vivo [3],5.52 ± 0.558 L/kg
same,half-life,in vivo [3],12.4 ± 0.9 min
same,clearance,in vivo [3]; Cl: clearance,284 ± 10.4 mL/min/kg
same,detection in the CSF of rats after intravenous administration,"in vivo [4]; iv 100 mg/kg, within 90 min after the end of infusion",not detected
same,AUC in CSF from the end of infusion to last time of detection,"in vivo [4]; male, Wistar, rat, in vivo, iv",0 µg·min/mL
same,Kp at 10 min,"in vivo [4]; male, Wistar, rat, in vivo, iv",0
same,AUC in CSF to last time of detection,in vivo [5],0 µg·min/mL
same,Tmax: time of Cmax in CSF,in vivo [5],0 h
same,Tmax: time of Cmax in the bloodstream,in vivo [6],30 min
same,F: absolute bioavailability,in vivo [6]; po,7.04 ± 0.96%
same,bioavailability,in vivo [6]; po,7%
